Experimental data: patent US12404244B2, “Pan-KIT kinase inhibitor having quinoline structure and application thereof” (Tarapeutics Science Inc., priority 2018, dated 2025)

Assays:
TEL-KIT/L576P-BaF3 = assay: Proliferation of TEL-KIT/L576P-BaF3 cells (CCK-8); assay type: cell-based; details: Mus musculus; 72 hours, CCK-8; read-out: GI50 TEL-KIT/L576P-BaF3
Source text: (§1) Compounds as provided herein were further evaluated for their inhibitory effects on proliferation of cancer cells by testing their effects on growth of cancer cells. In this example the following cells were used: primary mouse B cells BaF3 (purchased from ATCC), GIST-T1 cells of the human gastrointestinal stromal tumor cell line (expressing wild-type KIT gene) (purchased from Cosmo Bio Co., Ltd. (Japan)). The present lab further constructed and used the following: mouse Tel-Kit-BaF3 (stably expressing KIT wild-type kinase), mouse Tel-Kit/T670I-BaF3 (stably expressing KIT T670I mutant kinase), mouse Tel-Kit/V559A-BaF3 (stably expressing KIT V559A mutant kinase), mouse Tel-Kit/V559D-BaF3 (stably expressing KIT V559D mutant kinase), mouse Tel-Kit/V559G-BaF3 (stably expressing KIT V559G mutant kinase), mouse Tel-Kit/V560D-BaF3 (stably expressing KIT V560D mutant kinase), mouse Tel-Kit/L576P-BaF3 (stably expressing KIT L576P mutant kinase), mouse Tel-Kit/V654A-BaF3 (stably expressing KIT V654A mutant kinase), mouse Tel-Kit/V654A/V559D-BaF3 (stably expressing KIT V654A V559D mutant kinase), mouse Tel-Kit/T670E-BaF3 (stably expressing KIT T670E mutant kinase), mouse Tel-Kit/T670I/V559D-BaF3 (stably expressing KIT T670I V559D mutant kinase), mouse Tel-Kit/S709F-BaF3 (stably expressing KIT S709F mutant kinase), mouse Tel-Kit/D816E-BaF3 (stably expressing KIT D816E mutant kinase), mouse Tel-Kit/D816H-BaF3 (stably expressing KIT D816H mutant kinase), mouse Tel-Kit/D820E-BaF3 (stably expressing KIT D820E mutant kinase), mouse Tel-Kit/D820G-BaF3 (stably expressing KIT D820G mutant kinase), mouse Tel-Kit/D820Y-BaF3 (stably expressing KIT D820Y mutant kinase), mouse Tel-Kit/N822K-BaF3 (stably expressing KIT N822K mutant kinase), mouse Tel-Kit/Y823D-BaF3 (stably expressing KIT Y823D mutant kinase), mouse Tel-Kit/A829P-BaF3 (stably expressing KIT A829P mutant kinase), GIST-T1-T670I cells of the human gastrointestinal stromal tumor cell line (expressing KIT-T670I mutant gene). […]

GIST-T1 = assay: Proliferation of GIST-T1 cells (CCK-8); assay type: cell-based; details: Homo sapiens, GISTT1; 72 hours, CCK-8; read-out: GI50 GIST-T1
Source text: as §1
The cells after incubation were detected using CCK-8 (purchased from MedChem Express, Shanghai, China) cell viability assay kit (CCK-8 may be reduced by dehydrogenase in living cells to a highly water-soluble yellow formazan product, and the amount of the resultant formazan is proportional to the number of living cells), the number of living cells were quantified with a microplate reader, and GI50 of the compounds and the control compounds were calculated (the results shown in Table 2 and Table 3).

TEL-KIT/V654A/V559D-BaF3 = assay: Proliferation of TEL-KIT/V654A/V559D-BaF3 cells (CCK-8); assay type: cell-based; details: Mus musculus; 72 hours, CCK-8; read-out: GI50 TEL-KIT/V654A/V559D-BaF3
Source text: as §1, with “gene). The above cell lines were constructed by: amplifying respectively the sequences of human KIT and various mutant kinase regions of KIT via PCR, inserting the fragments respectively into MSCV-Puro vectors having a N-terminal TEL fragment and/or a NPM fragment and/or a TPR fragment (purchased from Clontech), transfecting mouse BaF3 cells with the vectors by means of retrovirus to obtain stably transfected cells, removing the growth factor IL-3, and thereby eventually obtaining cell lines that depend on the transferred protein KIT or various mutants of KIT.” for “gene).”

TEL-KIT/D816E-BaF3 = assay: Proliferation of TEL-KIT/D816E-BaF3 cells (CCK-8); assay type: cell-based; details: Mus musculus; 72 hours, CCK-8; read-out: GI50 TEL-KIT/D816E-BaF3
Source text: as §1, with “gene). The above cell lines were constructed by: amplifying respectively the sequences of human KIT and various mutant kinase regions of KIT via PCR, inserting the fragments respectively into MSCV-Puro vectors having a N-terminal TEL fragment and/or a NPM fragment and/or a TPR fragment (purchased from Clontech), transfecting mouse BaF3 cells with the vectors by means of retrovirus to obtain stably transfected cells, removing the growth factor IL-3, and thereby eventually obtaining cell lines that depend on the transferred protein KIT or various mutants of KIT.” for “gene).”

TEL-KIT/D820E-BaF3 = assay: Proliferation of TEL-KIT/D820E-BaF3 cells (CCK-8); assay type: cell-based; details: Mus musculus; 72 hours, CCK-8; read-out: GI50 TEL-KIT/D820E-BaF3
Source text: as §1, with “gene). The above cell lines were constructed by: amplifying respectively the sequences of human KIT and various mutant kinase regions of KIT via PCR, inserting the fragments respectively into MSCV-Puro vectors having a N-terminal TEL fragment and/or a NPM fragment and/or a TPR fragment (purchased from Clontech), transfecting mouse BaF3 cells with the vectors by means of retrovirus to obtain stably transfected cells, removing the growth factor IL-3, and thereby eventually obtaining cell lines that depend on the transferred protein KIT or various mutants of KIT.” for “gene).”

TEL-KIT/N822K-BaF3 = assay: Proliferation of TEL-KIT/N822K-BaF3 cells (CCK-8); assay type: cell-based; details: Mus musculus; 72 hours, CCK-8; read-out: GI50 TEL-KIT/N822K-BaF3
Source text: as §1, with “gene). The above cell lines were constructed by: amplifying respectively the sequences of human KIT and various mutant kinase regions of KIT via PCR, inserting the fragments respectively into MSCV-Puro vectors having a N-terminal TEL fragment and/or a NPM fragment and/or a TPR fragment (purchased from Clontech), transfecting mouse BaF3 cells with the vectors by means of retrovirus to obtain stably transfected cells, removing the growth factor IL-3, and thereby eventually obtaining cell lines that depend on the transferred protein KIT or various mutants of KIT.” for “gene).”

TEL-KIT/T670I-BaF3 = assay: Proliferation of TEL-KIT/T670I-BaF3 cells (CCK-8); assay type: cell-based, mouse; details: Mus musculus; 72 hours, CCK-8; read-out: GI50 TEL-KIT/T670I-BaF3
Source text: Compounds as provided herein were further evaluated for their inhibitory effects on proliferation of cancer cells by testing their effects on growth of cancer cells. In this example the following cells were used: primary mouse B cells BaF3 (purchased from ATCC), GIST-T1 cells of the human gastrointestinal stromal tumor cell line (expressing wild-type KIT gene) (purchased from Cosmo Bio Co., Ltd. (Japan)). The present lab further constructed and used the following: mouse Tel-Kit-BaF3 (stably expressing KIT wild-type kinase), mouse Tel-Kit/T670I-BaF3 (stably expressing KIT T670I mutant kinase), mouse Tel-Kit/V559A-BaF3 (stably expressing KIT V559A mutant kinase), mouse Tel-Kit/V559D-BaF3 (stably expressing KIT V559D mutant kinase), mouse Tel-Kit/V559G-BaF3 (stably expressing KIT V559G mutant kinase), mouse Tel-Kit/V560D-BaF3 (stably expressing KIT V560D mutant kinase), mouse Tel-Kit/L576P-BaF3 (stably expressing KIT L576P mutant kinase), mouse Tel-Kit/V654A-BaF3 (stably expressing KIT V654A mutant kinase), mouse Tel-Kit/V654A/V559D-BaF3 (stably expressing KIT V654A V559D mutant kinase), mouse Tel-Kit/T670E-BaF3 (stably expressing KIT T670E mutant kinase), mouse Tel-Kit/T670I/V559D-BaF3 (stably expressing KIT T670I V559D mutant kinase), mouse Tel-Kit/S709F-BaF3 (stably expressing KIT S709F mutant kinase), mouse Tel-Kit/D816E-BaF3 (stably expressing KIT D816E mutant kinase), mouse Tel-Kit/D816H-BaF3 (stably expressing KIT D816H mutant kinase), mouse Tel-Kit/D820E-BaF3 (stably expressing KIT D820E mutant kinase), mouse Tel-Kit/D820G-BaF3 (stably expressing KIT D820G mutant kinase), mouse Tel-Kit/D820Y-BaF3 (stably expressing KIT D820Y mutant kinase), mouse Tel-Kit/N822K-BaF3 (stably expressing KIT N822K mutant kinase), mouse Tel-Kit/Y823D-BaF3 (stably expressing KIT Y823D mutant kinase), mouse Tel-Kit/A829P-BaF3 (stably expressing KIT A829P mutant kinase), GIST-T1-T670I cells of the human gastrointestinal stromal tumor cell line (expressing KIT-T670I mutant gene). The above cell lines were constructed by: amplifying respectively the sequences of human KIT and various mutant kinase regions of KIT via PCR, inserting the fragments respectively into MSCV-Puro vectors having a N-terminal TEL fragment and/or a NPM fragment and/or a TPR fragment (purchased from Clontech), transfecting mouse BaF3 cells with the vectors by means of retrovirus to obtain stably transfected cells, removing the growth factor IL-3, and thereby eventually obtaining cell lines that depend on the transferred protein KIT or various mutants of KIT. The GIST-T1-T670I (expressing C-KIT-T670I mutant gene) cell line was constructed by our laboratory as follows: designing sgRNA that targeted a region around T670 of the KIT gene with CRISPR Design Tool (website: crispr.mit.edu, Zhang Feng Lab), cloning it into pSpCas9(BB)-2A-Puro vector; co-transfecting cells with the resultant vector and a single-stranded oligonucleotide having T670I site mutation that is near to T670, subjecting the resultant to antibiotics screening, followed by dilution, and monocellular culture in a 96-well plate; validating the site T670 of the cells by sequence detection via Sanger sequencing.

GI50 (TEL-KIT/L576P-BaF3): 1 nM
GI50 (TEL-KIT/V654A/V559D-BaF3): 42 nM
GI50 (TEL-KIT/D816E-BaF3): 16 nM
GI50 (TEL-KIT/D820E-BaF3): 1 nM
GI50 (TEL-KIT/N822K-BaF3): 26 nM
GI50 (TEL-KIT/T670I-BaF3): 4 nM
Structure (SMILES): COc1cc2nccc(Oc3ccc(NC(=O)Cc4ccc(Cl)c(C(F)(F)F)c4)cc3)c2cc1OC [Example 2, N-(4-((6,7-dimethoxyquinolin-4-yl)oxy)phenyl)-2-(4-chloro-3-(trifluoromethyl)phenyl)-acetamide]
GI50 (GIST-T1): 6 nM
